Source: patent US20260216170A1, “TETRAHYDROISOQUINOLINE HETEROBIFUNCTIONAL BCL-XL DEGRADERS” (Treeline Biosciences, Inc., priority 2023, published 2026)

Molecular target: T1, Human BCL-XL protein (N-terminal HiBiT tagged BCL-XL expressed in HT1080 cells) (Homo sapiens, UniProt Q07817)
T1 construct: expressed in transfected cells; host or cells: HT-1080 (ATCC CCL-121), stably transduced with lentivirus pLV-UBC-N-HiBiT-BCL-XL-PGK-puro and selected with puromycin
Assay: HiBiT Based Degradation Assay
Format: cell-based
Details: 24 hours incubation; for DC50: BCL-XL degradation, HT1080 cells expressing N-HiBiT-BCL-XL, normalized with DMSO control, geometric mean for multiple data points, read-out: EC50 (24 h); for Ymin (24 h): bottom of BCL-XL degradation curve (remaining HiBiT-BCL-XL signal vs DMSO control), HT1080 cells
Outline: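 BCL-XL degradation was read as Nano-Glo HiBiT lytic luminescence relative to DMSO after a 24 h compound treatment of HT1080 cells carrying stably integrated N-HiBiT-BCL-XL. EC50 values come from four-parameter logistic curves, with the hook-curve minimum fixed as bottom, and are geometric means where tested repeatedly.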

T1 sequence (Q07817 whole entry): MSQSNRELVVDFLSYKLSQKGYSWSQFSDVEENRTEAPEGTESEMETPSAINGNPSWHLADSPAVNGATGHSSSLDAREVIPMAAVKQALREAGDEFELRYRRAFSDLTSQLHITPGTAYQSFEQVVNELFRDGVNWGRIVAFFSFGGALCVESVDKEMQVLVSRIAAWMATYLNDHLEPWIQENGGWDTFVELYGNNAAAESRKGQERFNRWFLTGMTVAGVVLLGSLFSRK

Row | DC50 | Ymin (24 h) | SMILES
1 | 10 to 100 nM | B (30% ≤ Ymin < 50%) | Cc1c(OC[C@H]2C[C@H]2CC2CCN(CC(=O)Nc3ccc4c(C5CCC(=O)NC5=O)nn(C)c4c3)CC2)cccc1-c1ccc(N2CCc3cccc(C(=O)Nc4nc5ccccc5s4)c3C2)nc1C(=O)O (single isomer, unassigned) [Compound 1004d]
2 | 10 to 100 nM | B (30% ≤ Ymin < 50%) | Cn1nc(C2CCC(=O)NC2=O)c2ccc(NC(=O)CN3CCC4(CC3)CC(COc3cccc(-c5ccc(N6CCc7cccc(C(=O)Nc8nc9ccccc9s8)c7C6)nc5C(=O)O)c3C(F)(F)F)C4)cc21 (stereo not drawn) [Compound 132, 6-(8-(benzo[d]thiazol-2-ylcarbamoyl)-3,4-dihydroisoquinolin-2(1H)-yl)-3-(3-((7-(2-((3-(2,6-dioxopiperidin-3-yl)-1-methyl-1H-indazol-6-yl)amino)-2-oxoethyl)-7-azaspiro[3.5]nonan-2-yl)methoxy)-2-(trifluoromethyl)phenyl)picolinic acid]
3 | 10 to 100 nM | B (30% ≤ Ymin < 50%) | COc1c(NC(=O)CN2CCC(CCCOc3cccc(-c4ccc(N5CCc6cccc(C(=O)Nc7nc8ccccc8s7)c6C5)nc4C(=O)O)c3F)CC2)ccc2c(C3CCC(=O)NC3=O)nn(C)c12 (stereo not drawn) [Compound 200]
4 | 10 to 100 nM | B (30% ≤ Ymin < 50%) | Cc1c(OC[C@@H]2C[C@@H]2C2CCN(CC(=O)Nc3ccc4c(C5CCC(=O)NC5=O)nn(C)c4c3)CC2)cccc1-c1ccc(N2CCc3cccc(C(=O)Nc4nc5ccccc5s4)c3C2)nc1C(=O)O (single isomer, unassigned) [Compound 1001d]
5 | 10 to 100 nM | B (30% ≤ Ymin < 50%) | Cn1nc(C2CCC(=O)NC2=O)c2ccc(NC(=O)CN3CCC4(CC3)CC(COc3ccc(-c5ccc(N6CCc7cccc(C(=O)Nc8nc9ccccc9s8)c7C6)nc5C(=O)O)c(C(F)(F)F)c3)C4)c(F)c21 (stereo not drawn) [Compound 186]
6 | < 10 nM | B (30% ≤ Ymin < 50%) | Cc1c(OCC2CC3(CCN(CCOc4ccc5c(C6CCC(=O)NC6=O)nn(C)c5c4)CC3)C2)cccc1-c1ccc(N2CCc3cccc(C(=O)Nc4nc5ccccc5s4)c3C2)nc1C(=O)O (stereo not drawn) [Compound 152, 6-(8-(benzo[d]thiazol-2-ylcarbamoyl)-3,4-dihydroisoquinolin-2(1H)-yl)-3-(3-((7-(2-((3-(2,6-dioxopiperidin-3-yl)-1-methyl-1H-indazol-6-yl)oxy)ethyl)-7-azaspiro[3.5]nonan-2-yl)methoxy)-2-methylphenyl)picolinic acid]
7 | < 10 nM | B (30% ≤ Ymin < 50%) | Cn1nc(C2CCC(=O)NC2=O)c2ccc(NC(=O)CN3CCC(CCCOc4ccc(-c5ccc(N6CCc7cccc(C(=O)Nc8nc9ccccc9s8)c7C6)nc5C(=O)O)c(C(F)(F)F)c4)CC3)cc21 (stereo not drawn) [Compound 129, 6-(8-(benzo[d]thiazol-2-ylcarbamoyl)-3,4-dihydroisoquinolin-2(1H)-yl)-3-(4-(3-(1-(2-((3-(2,6-dioxopiperidin-3-yl)-1-methyl-1H-indazol-6-yl)amino)-2-oxoethyl)piperidin-4-yl)propoxy)-2-(trifluoromethyl)phenyl)picolinic acid]
8 | < 10 nM | B (30% ≤ Ymin < 50%) | Cn1nc(C2CCC(=O)NC2=O)c2ccc(NC(=O)CN3CCC4(CC3)CC(Oc3cccc(-c5ccc(N6CCc7ccnc(C(=O)Nc8nc9ccccc9s8)c7C6)nc5C(=O)O)c3C(F)(F)F)C4)cc21 (stereo not drawn) [Compound 154, 6-[8-(1,3-benzothiazol-2-ylcarbamoyl)-3,4-dihydro-1H-2,7-naphthyridin-2-yl]-3-[3-[[7-[2-[[3-(2,6-dioxo-3-piperidyl)-1-methyl-indazol-6-yl]amino]-2-oxo-ethyl]-7-azaspiro[3.5]nonan-2-yl]oxy]-2-(trifluoromethyl)phenyl]pyridine-2-carboxylic acid]
9 | 10 to 100 nM | B (30% ≤ Ymin < 50%) | C[C@@H](COc1ccc(-c2ccc(N3CCc4cccc(C(=O)Nc5nc6ccccc6s5)c4C3)nc2C(=O)O)c(C(F)(F)F)c1)CC1CCN(CC(=O)Nc2ccc3c(C4CCC(=O)NC4=O)nn(C)c3c2)CC1 (single isomer, unassigned) [Compound 130a]
10 | < 10 nM | A (Ymin < 30%) | Cn1nc(C2CCC(=O)NC2=O)c2ccc(NC(=O)CN3CCC4(CC3)CC(Oc3ccc(-c5ccc(N6CCc7cccc(C(=O)Nc8nc9ccccc9s8)c7C6)nc5C(=O)O)c(C(F)(F)F)c3)C4)cc21 (stereo not drawn) [Compound 155, 6-(8-(benzo[d]thiazol-2-ylcarbamoyl)-3,4-dihydroisoquinolin-2(1H)-yl)-3-(4-((7-(2-((3-(2,6-dioxopiperidin-3-yl)-1-methyl-1H-indazol-6-yl)amino)-2-oxoethyl)-7-azaspiro[3.5]nonan-2-yl)oxy)-2-(trifluoromethyl)phenyl)picolinic acid]
11 | < 10 nM | B (30% ≤ Ymin < 50%) | Cc1cc(OC[C@H]2C[C@@H]2CC2CCN(CC(=O)Nc3ccc4c(C5CCC(=O)NC5=O)nn(C)c4c3)CC2)ccc1-c1ccc(N2CCc3cccc(C(=O)Nc4nc5ccccc5s4)c3C2)nc1C(=O)O (single isomer, unassigned) [Compound 1002a]
12 | 10 to 100 nM | B (30% ≤ Ymin < 50%) | COc1c(NC(=O)CN2CC[C@H](CCCOc3cccc(-c4ccc(N5CCc6cccc(C(=O)Nc7nc8ccccc8s7)c6C5)nc4C(=O)O)c3C)C[C@H]2C)ccc2c(C3CCC(=O)NC3=O)nn(C)c12 (stereo partly drawn) [Compound 208c]
13 | < 10 nM | B (30% ≤ Ymin < 50%) | Cc1c(OC2CC3(CCN(CC(=O)Nc4ccc5c(C6CCC(=O)NC6=O)nn(C)c5c4)CC3)C2)cccc1-c1ccc(N2CCc3cccc(C(=O)Nc4nc5ccccc5s4)c3C2)nc1C(=O)O (stereo not drawn) [Compound 113, 6-[8-(1,3-benzothiazol-2-ylcarbamoyl)-3,4-dihydro-1H-isoquinolin-2-yl]-3-[3-[[7-[2-[[3-(2,6-dioxo-3-piperidyl)-1-methyl-indazol-6-yl]amino]-2-oxo-ethyl]-7-azaspiro[3.5]nonan-2-yl]oxy]-2-methyl-phenyl]pyridine-2-carboxylic acid]
14 | < 10 nM | B (30% ≤ Ymin < 50%) | Cc1c(OCCN2CCCC23CCN(CC(=O)Nc2ccc4c(C5CCC(=O)NC5=O)nn(C)c4c2)CC3)cccc1-c1ccc(N2CCc3cccc(C(=O)Nc4nc5ccccc5s4)c3C2)nc1C(=O)O (stereo not drawn) [Compound 177]
15 | 10 to 100 nM | B (30% ≤ Ymin < 50%) | Cc1c(OCC2CC3(CCN(CC(=O)Nc4ccc5c(C6CCC(=O)NC6=O)nn(C)c5c4)CC3)C2)cccc1-c1ccc(N2CCc3ccnc(C(=O)Nc4nc5ccccc5s4)c3C2)nc1C(=O)O (stereo not drawn) [Compound 134, 6-(8-(benzo[d]thiazol-2-ylcarbamoyl)-3,4-dihydro-2,7-naphthyridin-2(1H)-yl)-3-(3-((7-(2-((3-(2,6-dioxopiperidin-3-yl)-1-methyl-1H-indazol-6-yl)amino)-2-oxoethyl)-7-azaspiro[3.5]nonan-2-yl)methoxy)-2-methylphenyl)picolinic acid]
16 | < 10 nM | B (30% ≤ Ymin < 50%) | Cc1cc(OCC2CC3(CCN(CC(=O)Nc4ccc5c(C6CCC(=O)NC6=O)nn(C)c5c4C)CC3)C2)ccc1-c1ccc(N2CCc3cccc(C(=O)Nc4nc5ccccc5s4)c3C2)nc1C(=O)O (stereo not drawn) [Compound 124, 6-(8-(benzo[d]thiazol-2-ylcarbamoyl)-3,4-dihydroisoquinolin-2(1H)-yl)-3-(4-((7-(2-((3-(2,6-dioxopiperidin-3-yl)-1,7-dimethyl-1H-indazol-6-yl)amino)-2-oxoethyl)-7-azaspiro[3.5]nonan-2-yl)methoxy)-2-methylphenyl)picolinic acid]
17 | < 10 nM | B (30% ≤ Ymin < 50%) | Cc1c(OC2CC3(CCN(CC(=O)Nc4ccc5c(C6CCC(=O)NC6=O)nn(C)c5n4)CC3)C2)cccc1-c1ccc(N2CCc3ccnc(C(=O)Nc4nc5ccccc5s4)c3C2)nc1C(=O)O (stereo not drawn) [Compound 207, 6-[8-(1,3-benzothiazol-2-ylcarbamoyl)-3,4-dihydro-1H-2,7-naphthyridin-2-yl]-3-[3-[[7-[2-[[3-(2,6-dioxo-3-piperidyl)-1-methyl-pyrazolo[3,4-b]pyridin-6-yl]amino]-2-oxo-ethyl]-7-azaspiro[3.5]nonan-2-yl]oxy]-2-methyl-phenyl]pyridine-2-carboxylic acid]
18 | < 10 nM | B (30% ≤ Ymin < 50%) | Cc1cc(OC[C@H]2C[C@H]2CC2CCN(CC(=O)Nc3ccc4c(C5CCC(=O)NC5=O)nn(C)c4c3)CC2)ccc1-c1ccc(N2CCc3cccc(C(=O)Nc4nc5ccccc5s4)c3C2)nc1C(=O)O (single isomer, unassigned) [Compound 1002b]
19 | < 10 nM | A (Ymin < 30%) | Cc1cc(OC2CC3(CCN(CC(=O)Nc4ccc5c(C6CCC(=O)NC6=O)nn(C)c5c4F)CC3)C2)ccc1-c1ccc(N2CCc3ccnc(C(=O)Nc4nc5ccccc5s4)c3C2)nc1C(=O)O (stereo not drawn) [Compound 205]
20 | 10 to 100 nM | B (30% ≤ Ymin < 50%) | Cn1nc(C2CCC(=O)NC2=O)c2ccc(NC(=O)CN3CCC4(CC3)CC(COc3ccc(-c5ccc(N6CCc7cccc(C(=O)Nc8nc9ccccc9s8)c7C6)nc5C(=O)O)c(C(F)(F)F)c3)C4)nc21 (stereo not drawn) [Compound 148]
21 | 10 to 100 nM | C (50% ≤ Ymin < 70%) | Cc1c(OCCCC2CCN(CC(=O)Nc3ccc4c(C5CCC(=O)NC5=O)nn(C)c4n3)CC2)cccc1-c1ccc(N2CCc3cccc(C(=O)Nc4nc5ccccc5s4)c3C2)nc1C(=O)O (stereo not drawn) [Compound 101]
